Earlier results, collected in patent publication US20080103124A1, “Cefdinir-containing pharmaceutical composition” (ASTELLAS PHARMA INC., priority 2006, published 2008).
Read-outs that look alike come from different tables or passages of the source.

Conditions: human beings

C=CC1=C(C(=O)O)N2C(=O)[C@@H](NC(=O)/C(=N\O)c3csc(N)n3)[C@H]2SC1 [cefdinir]
absolute bioavailability (following administration of a 300 mg capsule): 21% | absolute bioavailability (following administration of an oral suspension of 250 mg/5 mL): 25%
